Data on 21 molecules can be found in US4476129A, “4-[2-[Bis(halophenyl)methoxy]-ethyl]-α-(substituted phenyl)-1-piperazinealkanol derivatives, processes for their preparation and pharmaceutical preparations containing them” (priority 1982, dated 1984).

The term ED50 denotes the midpoint of the dose-response relation. A low value points to an effect at a small dose. Broadly, the IC50 is the concentration that gives 50% inhibition.

Test [1] deals with stereotyped behaviour in female Wistar rats. Briefly: Stereotypy in the rat (stereotyped behaviour). It is filed as in vivo. The conditions noted are these: 50% of the maximal effect, observed 15-300 minutes after administration; for ED50: Rattus norvegicus, po; for ED50, stereotyped behaviour: p.o. How it is done:
C. Stereotypy in the rat.
The stereotyped behavior appearing in the rat after administration of centrally active dopaminergic substances can be regarded as a relevant test for antiparkinson agents.
The tests were carried out with female Wistar rats under conditions with a low level of stimuli. The behaviour of the rats was observed on 15, 30, 60, 120, 180, 240 and 300 minutes after administration of the substance, the following parameters being considered:
The total impression of the intensity of stereotypy was noted according to the following rating:
For each dose a group of four rats was used, so that the total score for the seven observations was maximally 7×4×3=84.

Test [2] has as its system dopamine uptake by striatal synaptosomes (corpus striatum of the rat). Briefly: Inhibition of re-uptake of dopamine by striatal synaptosomes. Format: biochemical. The conditions noted are these: radioactive labelled dopamine. The method, then: A. Inhibition of re-uptake of dopamine by striatal synaptosomes.
The re-uptake process is the most important physiological mechanism causing inactivation of neurotransmitters like dopamine, which are released into the synaptic cleft by a nervous impulse. Inhibition of the dopamine uptake will lead to increased concentration of dopamine in the synaptic cleft and potentiation of the dopamine effect on the post-synaptic receptor. This inhibition was examined in vitro by incubation of synaptosomes of the corpus striatum of the rat with radioactive labelled dopamine, as described by P. van der Zee and W. Hespe, Neuropharmacol. 17, 483-490 (1978). Measurements were made of the concentration of the test compound giving 50% inhibition of the uptake (IC50).

Test [3] concerns the target T1, dopamine receptors (Rattus norvegicus, UniProt P61169).
T1 construct: membrane fraction of the corpus striatum of the rat; from tissue; host or cells: rat corpus striatum, membrane fraction
Briefly: Affinity to dopamine receptors (receptor binding). How it is done:
(§1) B. Affinity to dopamine receptors.
(§2) The affinity of the compounds to the dopamine receptors in a membrane fraction of the corpus striatum of the rat was determined as described by D. R. Burt et al., Mol. Pharmacol., 12, 800-812 (1976), dopamine and the dopamine antagonist haloperiodol being used as radioactive labelled ligands. The IC50-value is the concentration of the piperazine derivatives necessary to inhibit the specific binding of dopamine, or haloperiodol for 50%.

In test [4] the target is dopamine receptors. Briefly: Affinity to dopamine receptors (receptor binding). Details: species or system rat. The settings on record: membrane fraction of corpus striatum of the rat, radioactive labelled dopamine as ligand. How it is done:
as §1, §2

[5] abbreviates: membrane fraction of corpus striatum of the rat, radioactive labelled haloperidol (dopamine antagonist) as ligand, read-out: IC50, receptor binding haloperidol.

“And” between values parts separate entries of the source, which are not always exact repeats. Equal values may be shown once. Where a name gives a salt, the structure may show the parent alone. Read-outs that look alike come from different tables or passages of the source.

T1 sequence (P61169 whole entry): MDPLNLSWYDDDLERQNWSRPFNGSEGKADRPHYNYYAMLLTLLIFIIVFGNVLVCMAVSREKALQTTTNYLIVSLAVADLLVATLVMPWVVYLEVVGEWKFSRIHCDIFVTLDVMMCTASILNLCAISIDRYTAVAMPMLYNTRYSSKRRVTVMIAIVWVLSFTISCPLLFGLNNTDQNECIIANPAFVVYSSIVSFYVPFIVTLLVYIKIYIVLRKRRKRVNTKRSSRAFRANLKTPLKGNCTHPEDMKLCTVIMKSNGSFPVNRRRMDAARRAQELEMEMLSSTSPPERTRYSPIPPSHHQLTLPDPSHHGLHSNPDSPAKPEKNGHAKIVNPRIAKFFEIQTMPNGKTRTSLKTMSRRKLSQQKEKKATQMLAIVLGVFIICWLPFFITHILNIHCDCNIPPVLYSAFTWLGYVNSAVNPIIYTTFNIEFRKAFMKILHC

The molecule `OC(CN1CCN(CCOC(c2ccc(F)cc2)c2ccc(F)cc2)CC1)c1ccccc1` (stereo not drawn) [Compound 1, 4-[2-[bis(4-fluorophenyl)methoxy]ethyl]-α-phenyl-1-piperazineethanol] returned an ED50 in test [1] of 17.5 mg/kg. Moreover, the results for the IC50 (in test [2]; at dopamine receptors [3] (setting [5]); on dopamine receptors [4]) were 26.5 nM, 780 nM and 46.7 nM, respectively.
Regarding `OC(CCN1CCN(CCOC(c2ccc(F)cc2)c2ccc(F)cc2)CC1)c1ccccc1` (stereo not drawn) [Compound 2, 4-[2-[bis(4-fluorophenyl)methoxy]ethyl]-α-phenyl-1-piperazinepropanol], the IC50 was found to be 1.3 nM in test [2], 307 nM on dopamine receptors [3] and 13.3 nM at dopamine receptors [4].
Consider `OC(CCN1CCN(CCOC(c2ccc(F)cc2)c2ccc(F)cc2)CC1)c1ccc(F)cc1` (stereo not drawn) [Compound 3, 4-[2-[bis(4-fluorophenyl)methoxy]ethyl]-α-(4-fluorophenyl)-1-piperazinepropanol], for which, in test [1], the ED50 amounted to 1.7 mg/kg. Further, in test [1], the “ED50, stereotyped behaviour” value is 2.3 mg/kg p.o. and 1.3 mg/kg p.o. In addition, the IC50 was 8.2 nM in test [2], 610 nM on dopamine receptors [3] (setting [5]) and 8.7 nM at dopamine receptors [4].
On to `OC(Cc1ccccc1)CN1CCN(CCOC(c2ccc(F)cc2)c2ccc(F)cc2)CC1` (stereo not drawn) [Compound 4, 4-[2-[bis(4-fluorophenyl)methoxy]ethyl]-α-(phenylmethyl)-1-piperazineethanol], for which the ED50 in test [1] was approximately 6 mg/kg. Moreover, the IC50 in test [2] is 5.4 nM; on dopamine receptors [3] (setting [5]), 546 nM; on dopamine receptors [4], 30.5 nM.
Taken in the same sequence, the figures for `CC(O)(CCN1CCN(CCOC(c2ccc(F)cc2)c2ccc(F)cc2)CC1)c1ccccc1` (stereo not drawn) [Compound 5, 4-[2-[bis(4-fluorophenyl)methoxy]ethyl]-α-phenyl-α-methyl-1-piperazinepropanol] were 14 mg/kg, 2.4 nM, 283 nM and 22.3 nM.
For the molecule `CC(O)(CCN1CCN(CCOC(c2ccc(F)cc2)c2ccc(F)cc2)CC1)c1ccc(F)cc1` (stereo not drawn) [Compound 6, 4-[2-[bis(4-fluorophenyl)methoxy]ethyl]-α-(4-fluorophenyl)-α-methyl-1-piperazinepropanol], the ED50 in test [1] worked out at 11.4 mg/kg. Also, the figures for the IC50 (in test [2]; at dopamine receptors [3] (setting [5]); on dopamine receptors [4]) were 6.7 nM, 277 nM and 32.3 nM, respectively.
`CCC(O)(CCN1CCN(CCOC(c2ccc(F)cc2)c2ccc(F)cc2)CC1)c1ccccc1` (stereo not drawn) [Compound 7, 4-[2-[bis(4-fluorophenyl)methoxy]ethyl]-α-ethyl-α-phenyl-1-piperazinepropanol]: in test [1], the 50% effect level (ED50) was put at a dose of 26 mg/kg. Besides, the IC50 in test [2] is 22.1 nM; at dopamine receptors [3] (setting [5]), 361 nM; at dopamine receptors [4] it was 63 nM.
As to `OC(CCCN1CCN(CCOC(c2ccc(F)cc2)c2ccc(F)cc2)CC1)c1ccccc1` (stereo not drawn) [Compound 8, 4-[2-[bis(4-fluorophenyl)methoxy]ethyl]-α-phenyl-1-piperazinebutanol], the 50% effective dose (ED50) in test [1] turned out to be 6.2 mg/kg. The “ED50, stereotyped behaviour” value in test [1] is 4.6 mg/kg p.o. For the same molecule, the IC50 in test [2] worked out at 3.4 nM; at dopamine receptors [3] (setting [5]), 445 nM; at dopamine receptors [4], 4 nM.
In the case of `Cl.Cl.OC(CCCN1CCN(CCOC(c2ccc(F)cc2)c2ccc(F)cc2)CC1)c1ccc(F)cc1` (stereo not drawn) [Compound 9, 4-[2-[bis(4-fluorophenyl)methoxy]ethyl]-α-(4-fluorophenyl)-1-piperazinebutanol dihydrochloride], the ED50 in test [1] was less than 5 mg/kg. For the same molecule, the 50% inhibitory concentration (IC50) in test [2] is 2.8 nM; at dopamine receptors [3] it was 492 nM; on dopamine receptors [4], 18.1 nM.
As for `O=C(CN1CCN(CCOC(c2ccc(F)cc2)c2ccc(F)cc2)CC1)c1ccccc1` [Compound 10, 2-[4-[2-[bis(4-fluorophenyl)methoxy]ethyl]-1-piperazinyl]-1-phenylethanonedihydrochloride], the values for the IC50 (in test [2]; at dopamine receptors [3] (setting [5]); at dopamine receptors [4]) were 28.3 nM, 524 nM and 55 nM, respectively.
With `O=C(CCN1CCN(CCOC(c2ccc(F)cc2)c2ccc(F)cc2)CC1)c1ccccc1` [Compound 11, 3-[4-[2-[bis(4-fluorophenyl)methoxy]ethyl]-1-piperazinyl]-1-phenyl-1-propanone], the ED50 in test [1] is less than 5.5 mg/kg. Further, the IC50 worked out at 39.7 nM in test [2], 268 nM on dopamine receptors [3] and 80.3 nM on dopamine receptors [4].
In test [1], `O=C(CCN1CCN(CCOC(c2ccc(F)cc2)c2ccc(F)cc2)CC1)c1ccc(F)cc1` [Compound 12, 3-[4-[2-[bis(4-fluorophenyl)methoxy]ethyl]-1-piperazinyl]-1-(4-fluorophenyl)-1-propanone] came in with an ED50 of 5.5 mg/kg. Further, the IC50 was determined as 35.4 nM in test [2], 467 nM at dopamine receptors [3] (setting [5]) and 180 nM on dopamine receptors [4].
As to `Cl.Cl.O=C(Cc1ccccc1)CN1CCN(CCOC(c2ccc(F)cc2)c2ccc(F)cc2)CC1` [Compound 13, 1-[4-[2-[bis(4-fluorophenyl)methoxy]ethyl]-1-piperazinyl]-3-phenyl-2-propanone dihydrochloride], it took a dose of 9.1 mg/kg to reach the 50% effect level in test [1] (ED50). In addition, the results for the IC50 (in test [2]; at dopamine receptors [3]; on dopamine receptors [4]) were 27 nM, 545 nM and 76 nM, respectively.
`Cl.Cl.O=C(CCCN1CCN(CCOC(c2ccc(F)cc2)c2ccc(F)cc2)CC1)c1ccccc1` [Compound 14, 4-[4-[2-[bis(4-fluorophenyl)methoxy]-ethyl]-1-piperazinyl]-1-phenyl-1-butanone dihydrochloride] gave an ED50 in test [1] of 18 mg/kg. Further, the figures for the IC50 (in test [2]; on dopamine receptors [3]; on dopamine receptors [4]) were 2.5 nM, 23.3 nM and 15.5 nM, respectively.
The molecule `O=C(CCCN1CCN(CCOC(c2ccc(F)cc2)c2ccc(F)cc2)CC1)c1ccc(F)cc1` [Compound 15, 4-[4-[2bis(4-fluorophenyl)methoxy]ethyl]-1-piperazinyl]-1-(4-fluorophenyl)-1-butanone dihydrochloride] came in with an ED50 in test [1] of more than 46 mg/kg. The concentration for half-maximal inhibition (IC50) is 5.2 nM in test [2], 19 nM at dopamine receptors [3] and 291 nM at dopamine receptors [4].
`COC(CCN1CCN(CCOC(c2ccc(F)cc2)c2ccc(F)cc2)CC1)c1ccccc1.Cl.Cl` (stereo not drawn) [Compound 16, 1-[2-[bis-(4-fluorophenyl)methoxy]ethyl]-4-(3-phenyl-3-methoxypropyl]piperazine dihydrochloride] came in with an ED50 in test [1] of 4.6 mg/kg. Besides, the results for the half-maximal inhibitory concentration (IC50) (in test [2]; at dopamine receptors [3]; on dopamine receptors [4]) were 13.2 nM, 523 nM and 50 nM, respectively.
`CNC(=O)OC(CCN1CCN(CCOC(c2ccc(F)cc2)c2ccc(F)cc2)CC1)c1ccccc1` (stereo not drawn) [Compound 17, methylcarbaminic 3-[4-[2-[bis(4-fluorophenyl)methoxy]ethyl]-1-piperazinyl]-1-phenylpropyl]ester (Z)-2-butendioate (1:2)] had an ED50 in test [1] of 4.3 mg/kg. Besides, the “ED50, stereotyped behaviour” value in test [1] is on record as 7.2 mg/kg p.o. The values for the IC50 (in test [2]; on dopamine receptors [3]; on dopamine receptors [4]) were 4.9 nM, 97.3 nM and 27.2 nM, respectively.
Turning to `CCNC(=O)OC(CCN1CCN(CCOC(c2ccc(F)cc2)c2ccc(F)cc2)CC1)c1ccccc1` (stereo not drawn) [Compound 18, Ethylcarbaminic[3-[4-[2-[bis(fluorophenyl)methoxy]ethyl]-1-piperazinyl]-1-phenylpropyl]ester (Z)-2-butenedioate (1:2)], in test [1], the ED50 stood at 11.2 mg/kg. For the same molecule, the IC50 in test [2] came out at 2.4 nM; at dopamine receptors [3] (setting [5]), 216 nM; on dopamine receptors [4] it was 16.9 nM.
As to `O=C(Nc1ccccc1)OC(CCN1CCN(CCOC(c2ccc(F)cc2)c2ccc(F)cc2)CC1)c1ccccc1` (stereo not drawn) [Compound 19, Phenylcarbaminic[3-[4-[2-[bis(4-fluorophenyl)methoxy]ethyl]-1-piperazinyl]-1-phenylpropyl]ester (Z)-2-butenedioate (1:2)], the IC50 in test [2] was 3.3 nM; on dopamine receptors [3] (setting [5]) it was 302 nM; on dopamine receptors [4], 43.4 nM.
The molecule `CC(C)C[C@H]1C(=O)N2CCC[C@H]2[C@]2(O)O[C@](NC(=O)[C@@H]3C=C4c5cccc6[nH]c(Br)c(c56)C[C@H]4N(C)C3)(C(C)C)C(=O)N12` [bromocriptine, reference compound] came in with an ED50 in test [1] of 25.3 mg/kg.
In the case of `c1cnc(N2CCN(Cc3ccc4c(c3)OCO4)CC2)nc1` [piribedil, reference compound], in test [1], it took a dose of 99.5 mg/kg to reach the 50% effect level (ED50).
